Results: US20230242585A1, “IMMUNOMODULATORS” (Bristol-Myers Squibb Company, priority 2020, published 2023)
Starred links: 1 amine or outer side, 2 acyl side, 3 side chain; linkers in the order of their positions; H or OH if unused. Positions of bridges follow the written chain, without caps; N, C: chain ends. Non-standard residues stand in square brackets, D forms with d. Residues, ends and D or L forms follow the SMILES beside them. X29 = O=C([C@H](CNC[C@H](O)[C@@H](O)[C@H](O[C@H]1O[C@H](CO)[C@@H](O)[C@H](O)[C@H]1O)[C@H](O)CO)N[*:1])[*:2]; X49 = O=C([C@H](CNC[C@@H](O)[C@H](O)[C@@H](O)[C@@H](O)[C@H](O)CO)N[*:1])[*:2]; X40 = O=C([C@H](CNC1[C@@H](O)[C@@H](O)[C@@H](O)[C@H](O)[C@H]1O)N[*:1])[*:2]; X66 = C[C@H](O)[C@H](O)[C@@H](O)[C@@H](O)CNCC[C@H](N[*:1])C(=O)[*:2]; X52 = C[C@H](O)[C@H](O)[C@@H](O)[C@@H](O)CNC[C@H](N[*:1])C(=O)[*:2]; X32 = O=C([C@H](CCNC[C@@H](O)[C@H](O)[C@@H](O)CO)N[*:1])[*:2]; X31 = O=C([C@H](CNC[C@@H](O)[C@H](O)[C@@H](O)CO)N[*:1])[*:2]; X6 = O=C([C@H](CCNC[C@H](O)[C@@H](O)[C@H](O)CO)N[*:1])[*:2]; X5 = O=C([C@H](CNC[C@H](O)[C@@H](O)[C@H](O)CO)N[*:1])[*:2]; Trp(1-CH2COOH) = N[C@@H](Cc1cn(CC(=O)O)c2ccccc12)C(=O)O; Hyp = O=C(O)[C@@H]1C[C@@H](O)CN1; NMeNle = CCCC[C@H](NC)C(=O)O; NMeA = CN[C@@H](C)C(=O)O; Dab = NCC[C@H](N)C(=O)O

Target: T1, PD-1/PD-L1 (Homo sapiens, UniProt Q9NZQ7)
T1 construct: TVMV protease site (linker) (C); made in house; host or cells: HEK293T cells
Assay: PD-1/PD-L1 Homogenous Time-Resolved Fluorescence (HTRF) binding assay
Details: PD-L1-His 10 nM, PD-1-Ig 20 nM
Source text: The ability of the compounds of formula (I) to bind to PD-L1 was investigated using a PD-1/PD-L1 Homogenous Time-Resolved Fluorescence (HTRF) binding assay.
The interaction of PD-1 and PD-L1 can be assessed using soluble, purified preparations of the extracellular domains of the two proteins. The PD-1 and PD-L1 protein extracellular domains were expressed as fusion proteins with detection tags, for PD-1, the tag was the Fc portion of Immunoglobulin (PD-1-Ig) and for PD-L1 it was the 6 histidine motif (PD-L1-His). All binding studies were performed in an HTRF assay buffer consisting of dPBS supplemented with 0.1% […] bovine serum albumin and 0.05% (v/v) Tween-20. For the h/PD-L1-His binding assay, inhibitors were pre-incubated with PD-L1-His (10 nM final) for 15 m in 4 µl of assay buffer, followed by addition of PD-1-Ig (20 nM final) in 1 µl of assay buffer and further incubation for 15 m. HTRF detection was achieved using europium crypate-labeled anti-Ig (1 nM final) and allophycocyanin (APC) labeled anti-His (20 nM final). Antibodies were diluted in HTRF detection buffer and 5 µl was dispensed on top of the binding reaction. The reaction mixture was allowed to equilibrate for 30 minutes and the resulting signal (665 nm/620 nm ratio) was obtained using an EnVision fluorometer. Additional binding assays were established between the human proteins PD-1-Ig/PD-L2-His (20 & 5 nM, respectively) and CD80-His/PD-L1-Ig (100 & 10 nM, respectively).
Recombinant Proteins: Human PD-1 (25-167) with a C-terminal human Fc domain of immunoglobulin G (Ig) epitope tag [hPD-1 (25-167)-3S-IG] and human PD-L1 (18-239) with a C-terminal His epitope tag [hPD-L1(18-239)-TVMV-His] were expressed in HEK293T cells and purified sequentially by ProteinA affinity chromatography and size exclusion chromatography. Human PD-L2-His and CD80-His was obtained through commercial sources.
Table 1 lists the IC50 values for representative examples of this disclosure measured in the PD-1/PD-L1 Homogenous Time-Resolved Fluorescence (HTRF) binding assay.

T1 sequence (Q9NZQ7 18-239): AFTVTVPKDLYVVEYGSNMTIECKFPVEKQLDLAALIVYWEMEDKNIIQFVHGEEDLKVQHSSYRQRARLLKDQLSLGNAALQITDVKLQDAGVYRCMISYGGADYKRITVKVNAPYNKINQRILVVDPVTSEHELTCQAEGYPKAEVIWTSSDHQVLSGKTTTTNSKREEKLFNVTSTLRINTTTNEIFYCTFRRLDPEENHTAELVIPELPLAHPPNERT

Compound	IC50 [nM]
CCCC[C@H]1C(=O)N(C)[C@@H](CCCC)C(=O)N[C@@H](CC(C)C)C(=O)N[C@H](C(=O)NCC(N)=O)CSCC(=O)N[C@@H](Cc2ccc(O)cc2)C(=O)N(C)[C@@H](C)C(=O)N[C@@H](CC(N)=O)C(=O)N2CCC[C@H]2C(=O)N[C@@H](CNC[C@H](O)[C@@H](O)[C@H](O[C@H]2O[C@H](CO)[C@@H](O)[C@H](O)[C@H]2O)[C@H](O)CO)C(=O)N[C@@H](CC(C)C)C(=O)N2C[C@H](O)C[C@H]2C(=O)N[C@@H](Cc2c[nH]c3ccccc23)C(=O)N[C@@H](CCN)C(=O)N[C@@H](Cc2cn(CC(=O)O)c3ccccc23)C(=O)N1C [Example 2011] ({CH2CO}-Y[NMeA]NP[X29]L[Hyp]W[Dab][Trp(1-CH2COOH)][NMeNle][NMeNle]LCG-NH2; thioether N-14)	8.8
CCCC[C@H]1C(=O)N(C)[C@@H](CCCC)C(=O)N[C@@H](CC(C)C)C(=O)N[C@H](C(=O)NCC(N)=O)CSCC(=O)N[C@@H](Cc2ccc(O)cc2)C(=O)N(C)[C@@H](C)C(=O)N[C@@H](CC(N)=O)C(=O)N2CCC[C@H]2C(=O)N[C@@H](CNC[C@@H](O)[C@H](O)[C@@H](O)[C@@H](O)[C@H](O)CO)C(=O)N[C@@H](CC(C)C)C(=O)N2C[C@H](O)C[C@H]2C(=O)N[C@@H](Cc2c[nH]c3ccccc23)C(=O)N[C@@H](CCN)C(=O)N[C@@H](Cc2cn(CC(=O)O)c3ccccc23)C(=O)N1C [Example 2019] ({CH2CO}-Y[NMeA]NP[X49]L[Hyp]W[Dab][Trp(1-CH2COOH)][NMeNle][NMeNle]LCG-NH2; thioether N-14)	8.1
CCCC[C@H]1C(=O)N(C)[C@@H](CCCC)C(=O)N[C@@H](CC(C)C)C(=O)N[C@H](C(=O)NCC(N)=O)CSCC(=O)N[C@@H](Cc2ccc(O)cc2)C(=O)N(C)[C@@H](C)C(=O)N[C@@H](CC(N)=O)C(=O)N2CCC[C@H]2C(=O)N[C@@H](CNC[C@H](O)[C@@H](O)[C@H](O)CO)C(=O)N[C@@H](CC(C)C)C(=O)N2C[C@H](O)C[C@H]2C(=O)N[C@@H](Cc2c[nH]c3ccccc23)C(=O)N[C@@H](CCNC[C@H](O)[C@@H](O)[C@H](O)CO)C(=O)N[C@@H](Cc2cn(CC(=O)O)c3ccccc23)C(=O)N1C [Example 2014] ({CH2CO}-Y[NMeA]NP[X5]L[Hyp]W[X6][Trp(1-CH2COOH)][NMeNle][NMeNle]LCG-NH2; thioether N-14)	2.5
CCCC[C@H]1C(=O)N(C)[C@@H](CCCC)C(=O)N[C@@H](CC(C)C)C(=O)N[C@H](C(=O)NCC(N)=O)CSCC(=O)N[C@@H](Cc2ccc(O)cc2)C(=O)N(C)[C@@H](C)C(=O)N[C@@H](CC(N)=O)C(=O)N2CCC[C@H]2C(=O)N[C@@H](CNC[C@H](O)[C@H](O)[C@@H](O)[C@H](C)O)C(=O)N[C@@H](CC(C)C)C(=O)N2C[C@H](O)C[C@H]2C(=O)N[C@@H](Cc2c[nH]c3ccccc23)C(=O)N[C@@H](CCNC[C@H](O)[C@H](O)[C@@H](O)[C@H](C)O)C(=O)N[C@@H](Cc2cn(CC(=O)O)c3ccccc23)C(=O)N1C [Example 2044] ({CH2CO}-Y[NMeA]NP[X52]L[Hyp]W[X66][Trp(1-CH2COOH)][NMeNle][NMeNle]LCG-NH2; thioether N-14)	12
CCCC[C@H]1C(=O)N(C)[C@@H](CCCC)C(=O)N[C@@H](CC(C)C)C(=O)N[C@H](C(=O)NCC(N)=O)CSCC(=O)N[C@@H](Cc2ccc(O)cc2)C(=O)N(C)[C@@H](C)C(=O)N[C@@H](CC(N)=O)C(=O)N2CCC[C@H]2C(=O)N[C@@H](CNC[C@@H](O)[C@H](O)[C@@H](O)CO)C(=O)N[C@@H](CC(C)C)C(=O)N2C[C@H](O)C[C@H]2C(=O)N[C@@H](Cc2c[nH]c3ccccc23)C(=O)N[C@@H](CCNC[C@@H](O)[C@H](O)[C@@H](O)CO)C(=O)N[C@@H](Cc2cn(CC(=O)O)c3ccccc23)C(=O)N1C [Example 2018] ({CH2CO}-Y[NMeA]NP[X31]L[Hyp]W[X32][Trp(1-CH2COOH)][NMeNle][NMeNle]LCG-NH2; thioether N-14)	2.4
CCCC[C@H]1C(=O)N(C)[C@@H](CCCC)C(=O)N[C@@H](CC(C)C)C(=O)N[C@H](C(=O)NCC(N)=O)CSCC(=O)N[C@@H](Cc2ccc(O)cc2)C(=O)N(C)[C@@H](C)C(=O)N[C@@H](CC(N)=O)C(=O)N2CCC[C@H]2C(=O)N[C@@H](CNC2[C@@H](O)[C@@H](O)[C@@H](O)[C@H](O)[C@H]2O)C(=O)N[C@@H](CC(C)C)C(=O)N2C[C@H](O)C[C@H]2C(=O)N[C@@H](Cc2c[nH]c3ccccc23)C(=O)N[C@@H](CCN)C(=O)N[C@@H](Cc2cn(CC(=O)O)c3ccccc23)C(=O)N1C (stereo partly drawn) [Example 2020] ({CH2CO}-Y[NMeA]NP[X40]L[Hyp]W[Dab][Trp(1-CH2COOH)][NMeNle][NMeNle]LCG-NH2; thioether N-14)	5
